Experimental findings from patent US20090069320A1, “Substituted 4-Amino-Quinazoline Compounds with Metabotropic Glutamate Receptor Regulating Activity and Uses Thereof” (Gruenenthal GmbH, priority 2006, published 2009) are described below.

Each structure is given as a SMILES string.

For orientation: inhibition means how much of the control response was suppressed.

The assay deals with T1, mGluR5 receptor (Sus scrofa, UniProt I3LUI7).
T1 construct: 450 μg of protein from brain homogenate with 5 nM ^3[H]-MPEP; from tissue; host or cells: pig brain halves without medulla, cerebellum and pons
T1 sequence (I3LUI7 19-1212): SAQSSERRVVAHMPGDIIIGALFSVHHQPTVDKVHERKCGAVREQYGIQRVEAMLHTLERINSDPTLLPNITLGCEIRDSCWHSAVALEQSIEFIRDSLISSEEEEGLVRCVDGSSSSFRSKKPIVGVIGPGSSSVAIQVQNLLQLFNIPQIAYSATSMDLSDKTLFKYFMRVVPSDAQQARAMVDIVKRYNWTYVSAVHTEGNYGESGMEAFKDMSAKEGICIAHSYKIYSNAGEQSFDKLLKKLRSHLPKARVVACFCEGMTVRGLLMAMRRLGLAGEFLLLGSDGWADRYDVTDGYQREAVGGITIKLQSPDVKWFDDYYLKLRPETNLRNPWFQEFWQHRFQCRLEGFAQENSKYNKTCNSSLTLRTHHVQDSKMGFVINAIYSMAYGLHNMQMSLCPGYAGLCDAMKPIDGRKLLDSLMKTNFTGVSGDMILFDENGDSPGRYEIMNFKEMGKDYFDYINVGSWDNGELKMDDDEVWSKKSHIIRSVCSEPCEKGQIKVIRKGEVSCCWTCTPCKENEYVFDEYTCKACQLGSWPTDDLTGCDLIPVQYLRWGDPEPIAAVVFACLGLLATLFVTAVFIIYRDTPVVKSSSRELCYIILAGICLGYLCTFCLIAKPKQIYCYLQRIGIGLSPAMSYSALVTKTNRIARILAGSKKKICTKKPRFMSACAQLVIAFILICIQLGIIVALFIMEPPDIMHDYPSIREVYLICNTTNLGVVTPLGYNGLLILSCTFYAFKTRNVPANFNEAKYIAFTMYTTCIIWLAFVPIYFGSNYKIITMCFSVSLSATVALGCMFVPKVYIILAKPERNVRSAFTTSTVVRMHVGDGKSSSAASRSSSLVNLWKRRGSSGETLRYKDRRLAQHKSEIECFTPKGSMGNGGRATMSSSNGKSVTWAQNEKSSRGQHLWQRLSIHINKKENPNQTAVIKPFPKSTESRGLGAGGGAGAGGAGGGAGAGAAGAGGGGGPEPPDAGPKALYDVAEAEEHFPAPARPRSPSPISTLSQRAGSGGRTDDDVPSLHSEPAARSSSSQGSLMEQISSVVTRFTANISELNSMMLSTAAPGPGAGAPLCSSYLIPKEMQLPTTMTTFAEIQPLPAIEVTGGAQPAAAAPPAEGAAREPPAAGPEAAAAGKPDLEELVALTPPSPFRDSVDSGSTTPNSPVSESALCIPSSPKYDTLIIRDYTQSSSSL
Kind of assay: [3H]-MPEP mGluR5 receptor binding assay (pig brain homogenate). The following applies: 10 μM compound, 5 nM [3H]-MPEP, read-out: % Inhibition of mGluR5 Receptor (pig) [^3H]-MPEP Bond at 10 μM. How it is done:
I. Method for Determining the Inhibition of the [^3H]-MPEP Bond in the mGluR5 Receptor Binding Assay
Pig brain homogenate is produced by homogenizing (Polytron PT 3000, Kinematica AG, 10 000 rpm for 90 seconds) pig brain halves without medulla, cerebellum and pons in pH 8.0 buffer (20 mM Hepes, Sigma, order no. H3375+1 complete tablet, 100 ml, Roche Diagnostics, order no. 1836145) in the ratio of 1:20 (brain weight/volume) and differential centrifuging at 900×g and 40 000×g. In incubation batches of 250 μl in 96-well microtitre plates 450 μg of protein from brain homogenate with 5 nM ^3[H]-MPEP (Tocris, order no. R1212) (MPEP=[…]) and the compounds to be examined (10 μM in test) in buffer (as above) are respectively incubated at room temperature for 60 minutes.
The batches are then filtered using a Brandel cell harvester (Brandel, Robotic 9600) on unifilter plates with fibreglass filter mats (Perkin Elmer, order no. 6005177) and then washed with buffer (as above) 3-times each with 250 μl per sample. The filter plates are then dried for 60 mins. at 55° C. Then, 30 μL of Ultima Gold™ scintillator (Packard BioScience, order no. 6013159) are added per well and after 3 hours the samples are measured on the β-counter (MicroBeta, Perkin Elmer). The non-specific binding is determined by adding 10 μM of MPEP (Tocris, order no. 1212).
Regarding `CC(C)Nc1ncnc2ccc(-c3cccc(CN(Cc4ccccc4)C(=O)c4cccnc4)c3)cc12` [Example 153, N-benzyl-N-[3-(4-isopropylamino-quinazolin-6-yl)-benzyl]-nicotinamide], the inhibition at 10 µM turned out to be 63%.

As to `CC(C)Nc1ncnc2ccc(-c3cccc(CN(Cc4ccccc4)C(=O)c4cccs4)c3)cc12` [Example 154, thiophene-2-carboxylic acid benzyl-[3-(4-isopropylamino-quinazolin-6-yl)-benzyl]-amide], the inhibition at 10 µM is 37%.

As to `COc1ccc(C(=O)N(Cc2ccccc2)Cc2cccc(-c3ccc4ncnc(NC(C)C)c4c3)c2)cc1` [Example 155, N-benzyl-N-[3-(4-isopropylamino-quinazolin-6-yl)-benzyl]-4-methoxy-benzamide], the inhibition at 10 µM was 67%.

In the case of `O=C(c1ccccc1O)N(Cc1cccc(-c2ccc3ncnc(NC4CC4)c3c2)c1)C1CC1` [Example 156, N-cyclopropyl-N-[3-(4-cyclopropylamino-quinazolin-6-yl)-benzyl]-2-hydroxy-benzamide], the inhibition at 10 µM was determined as 90%.

Consider `O=C(c1ccccc1Br)N(Cc1cccc(-c2ccc3ncnc(NC4CC4)c3c2)c1)C1CC1` [Example 157, 2-bromo-N-cyclopropyl-N-[3-(4-cyclopropylamino-quinazolin-6-yl)-benzyl]-benzamide], for which the inhibition at 10 µM amounted to 90%.

`COc1ccc(C(=O)N(Cc2cccc(-c3ccc4ncnc(NC5CC5)c4c3)c2)C2CC2)cc1OC` [Example 158, N-cyclopropyl-N-[3-(4-cyclopropylamino-quinazolin-6-yl)-benzyl]-3,4-dimethoxy-benzamide]: the inhibition at 10 µM is 81%.

On to `O=C(c1cc2ccccc2cn1)N(Cc1cccc(-c2ccc3ncnc(NC4CC4)c3c2)c1)C1CC1` [Example 159, isoquinoline-3-carboxylic acid cyclopropyl-[3-(4-cyclopropylamino-quinazolin-6-yl)-benzyl]-amide], for which the inhibition at 10 µM came out at 85%.

For the molecule `O=C(c1ccc(Cl)cc1)N(Cc1cccc(-c2ccc3ncnc(NC4CC4)c3c2)c1)C1CC1` [Example 160, 4-chloro-N-cyclopropyl-N-[3-(4-cyclopropylamino-quinazolin-6-yl)-benzyl]-benzamide], the inhibition at 10 µM was determined as 70%.

In the case of `N#Cc1ccc(C(=O)N(Cc2cccc(-c3ccc4ncnc(NC5CC5)c4c3)c2)C2CC2)cc1` [Example 161, 4-cyano-N-cyclopropyl-N-[3-(4-cyclopropylamino-quinazolin-6-yl)-benzyl]-benzamide], the inhibition at 10 µM was found to be 96%.

On to `O=C(c1cnccn1)N(Cc1cccc(-c2ccc3ncnc(NC4CC4)c3c2)c1)C1CC1` [Example 162, pyrazine-2-carboxylic acid cyclopropyl-[3-(4-cyclopropylamino-quinazolin-6-yl)-benzyl]-amide], for which the inhibition at 10 µM was 84%.

With `O=C(c1cccc(Br)n1)N(Cc1cccc(-c2ccc3ncnc(NC4CC4)c3c2)c1)C1CC1` [Example 163, 6-bromo-pyridine-2-carboxylic acid cyclopropyl-[3-(4-cyclopropylamino-quinazolin-6-yl)-benzyl]-amide], the inhibition at 10 µM came to 89%.

Consider `O=C(COc1ccccc1)N(Cc1cccc(-c2ccc3ncnc(NC4CC4)c3c2)c1)C1CC1` [Example 164, N-cyclopropyl-N-[3-(4-cyclopropylamino-quinazolin-6-yl)-benzyl]-2-phenoxy-acetamide], for which the inhibition at 10 µM amounted to 86%.

For `O=C(c1ccncc1)N(Cc1cccc(-c2ccc3ncnc(NC4CC4)c3c2)c1)C1CC1` [Example 165, N-cyclopropyl-N-[3-(4-cyclopropylamino-quinazolin-6-yl)-benzyl]-isonicotinamide], the inhibition at 10 µM was 88%.

Regarding `O=C(c1ccc(Br)s1)N(Cc1cccc(-c2ccc3ncnc(NC4CC4)c3c2)c1)C1CC1` [Example 166, 5-bromo-thiophene-2-carboxylic acid cyclopropyl-[3-(4-cyclopropylamino-quinazolin-6-yl)-benzyl]-amide], the inhibition at 10 µM stood at 86%.
